Measured values taken from paper PMC6977461 (Chemical Science, 2019).
*1 amine or outer side, *2 acyl side, *3 side chain or, on linkers, in order; H or OH if unused. The star is where a group is joined. X1 = C[C@@H](CN*)NC(=O)[C@@H](N)Cc1c[nH]cn1; CO = O=C([*:1])[*:2]

Experiments:
Format in all cases: cell-based
mouse GLP-1 receptor = molecular target: T1, mouse GLP-1 receptor (Mus musculus, UniProt O35659); test: cAMP production in βTC6 cells expressing GLP-1R endogenously (Method C2)
T1 construct: βTC6 cells which express GLP-1R endogenously; host or cells: βTC6 cells
T1 sequence (O35659 22-463): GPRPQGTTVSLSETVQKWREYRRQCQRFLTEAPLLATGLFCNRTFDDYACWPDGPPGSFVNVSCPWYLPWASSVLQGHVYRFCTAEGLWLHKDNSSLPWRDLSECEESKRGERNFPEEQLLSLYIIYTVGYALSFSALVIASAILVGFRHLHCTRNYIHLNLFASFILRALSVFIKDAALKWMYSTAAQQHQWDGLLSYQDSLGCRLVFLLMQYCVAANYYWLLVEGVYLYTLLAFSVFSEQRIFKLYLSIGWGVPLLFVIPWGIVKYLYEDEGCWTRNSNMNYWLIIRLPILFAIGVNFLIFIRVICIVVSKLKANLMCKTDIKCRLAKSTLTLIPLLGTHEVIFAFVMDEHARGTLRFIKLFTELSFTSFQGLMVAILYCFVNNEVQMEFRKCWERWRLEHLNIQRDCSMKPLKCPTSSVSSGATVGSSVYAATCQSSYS
Method: (§9)  HEK-293T cells (Multispan inc., lot#.DC1267-062017) were suspended in cell culture media
(§10) (DMEM 1X + GlutaMAX (Gibco 31966-021)) complemented with FBS 10% (Sigma Aldrich
(§11)  βTC6 cells were suspended in HBSS buffer (Invitrogen) complemented with 20 mM HEPES (pH
(§12) In vitro pharmacology on HEK-293T cells (EC50: Method C1)
(§13) cells (Multispan inc., lot#.DC1267-062017) was determined by measuring their effects on cAMP
(§14) production using the HTRF detection method (performed by UREkA SARL). The cells were distributed
(§15) in 384-well microplates at a density of 1.0x10^4 cells/well. Stock solutions of the test compounds or the
(§16) reference agonist were prepared at a concentration of 1 mM in DMSO. Then, compounds to be tested
(§17) were diluted in cell culture media and transferred to the plate containing the cells to reach final assay

SNAP-tagged human GLP-1R = molecular target: T2, SNAP-tagged human GLP-1R (Homo sapiens, UniProt P43220); test: SNAP-GLP-1R internalization by confocal microscopy in INS-1 832/3 cells; conditions: 10 nM ligand, 30 min, versus non-ureido peptides
T2 construct: host or cells: INS-1 832/3 cells with endogenous GLP-1R deleted by CRISPR/Cas9

INS-1 832/3 cells = test: insulin secretion in vitro in INS-1 832/3 cells; conditions: 16 h stimulation at 11 mM glucose, n = 5, versus non-ureido parents
GLP-1R [1] = molecular target: T3, GLP-1R (Homo sapiens, UniProt P43220); test: cAMP production functional assay in HEK293 cells transfected with GLP-1R (Method C1); parameters: host or cells: HEK-293T
Method: as §9, §10, §11, §12, §13, §14, §15, §16, §17

GLP-1R [2] = molecular target: T3, GLP-1R; test: β-arrestin-2 recruitment assay in PathHunter CHO-GLP-1R cells; parameters: host or cells: PathHunter CHO-GLP-1R-βarr2 cells; conditions: 30 min stimulation at 37 °C, n = 5, versus non-ureido parents 10 and 13
Method: (§1) signal measured at 665 nm by that measured at 620 nm (ratio). The results are expressed as a percent […]
(§2) tested in each experiment at several concentrations to generate a concentration-response curve from which its EC50 value and SE are calculated using GraphPad Prism.
(§3) In vitro pharmacology on immortalised CHO-GLP-1R cells (EC50: Method C3) PathHunter CHO-GLP-1R cells were stimulated for 30 min at 37°C with indicated concentration of agonist in serum free medium without phosphodiesterase inhibitors. The reaction was terminated by addition of cAMP detection reagents (cAMP Dynamic 2, Cisbio) and read by HTRF.
(§4) β-arrestin-2 recruitment assay […]
(§5) agonist in serum free medium. The reaction was terminated by addition of PathHunter detection reagents (DiscoverX) and luminescent signal recorded.
(§6) Calculation of signal bias
(§7) Biased signalling was quantified using a modified form of the operational model.[6] LogR values were calculated for each ligand in each assay, and ∆LogR were determined by subtracting from the […]
(§8) Bias was then determined as ∆∆LogR by subtracting ∆LogR for […]

GLP-1R [3] = molecular target: T3, GLP-1R; test: signal bias, cAMP vs β-arrestin-2, PathHunter CHO-GLP-1R cells (operational model); parameters: host or cells: PathHunter CHO-GLP-1R-βarr2 cells; conditions: relative to GLP-1-NH2 (2), n = 5
Method: as §1, §2, §3, §4, §5, §6, §7, §8

T3 sequence (P43220 24-463): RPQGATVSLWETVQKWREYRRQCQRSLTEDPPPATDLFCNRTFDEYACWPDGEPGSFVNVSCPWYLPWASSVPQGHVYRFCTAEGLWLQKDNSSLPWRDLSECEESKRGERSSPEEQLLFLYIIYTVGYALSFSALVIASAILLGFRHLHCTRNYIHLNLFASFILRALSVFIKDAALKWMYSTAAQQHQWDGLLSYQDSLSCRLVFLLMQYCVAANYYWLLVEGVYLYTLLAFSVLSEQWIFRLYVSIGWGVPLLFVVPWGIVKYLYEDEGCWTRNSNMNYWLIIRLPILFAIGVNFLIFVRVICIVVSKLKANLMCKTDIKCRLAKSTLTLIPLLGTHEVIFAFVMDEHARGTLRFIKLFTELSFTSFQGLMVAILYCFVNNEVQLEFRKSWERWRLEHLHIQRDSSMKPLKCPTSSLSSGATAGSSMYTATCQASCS
T2 sequence (P43220 24-463): as above

## {X1-CO}-EGTFTSDLSKQLEEEAVRLFIEWLKNGGPSSGAPPSKKKKKK-NH2 [compound 14]
Mouse GLP-1 receptor; from EC50 in βTC6 cAMP assay, footnote: compare to GLP-1-NH2 (2)
  Potency (%), Table S1: 118%
Mouse GLP-1 receptor; read-out: EC50 (GLP-1R potency), Table S1
  EC50: 0.09 nM
SNAP-tagged human GLP-1R
  endocytosis of the GLP-1R: noticeably reduced
INS-1 832/3 cells
  insulin release in vitro: significantly increased insulin release
GLP-1R [1]; HEK-293T cells exogenously expressing human GLP-1R, cAMP by HTRF, 10 min at 37 °C, Method C1, mean, n = 3 (2: n = 6), read-out: EC50 (GLP-1R potency)
  EC50: 0.0011 nM
GLP-1R [1]; from EC50 in HEK293 GLP-1R cAMP assay
  Potency (%), percentage of potency compared to GLP-1-NH2: 287%
GLP-1R [2]
  recruitment of β-arrestin to GLP-1R: selectively diminished
GLP-1R [3]
  signal bias (cAMP vs β-arrestin-2): strong preference for cAMP signalling
